Experimental findings from EP0104572A1, “Benzyl ethers of phenol Mannich bases, process for their production, their use and pharmaceutical preparations based on these compounds, intermediates and process for their production” (priority 1982, dated 1984) are described below.

Read-outs that look alike come from different tables or passages of the source.

Data set [1] can be described thus: Change of relative liver weight and liver findings in the 7-day oral rat study. The data set is classed as in vivo, männlichen Wistar-Ratten. An excerpt:
Die erfindungsgemäßen Verbindungen haben wertvolle therapeutische Eigenschaften. So erniedrigen sie vor allem die Konzentration von LDL und VLDL, die HDL-Fraktion aber kaum, in vielen Fällen wird diese Fraktion sogar vermehrt. Diese Verbindungen stellen daher einen wesentlichen Fortschritt gegenüber der Vergleichsverbindung Clofibrat dar, wie aus .den nachfolgend beschriebenen Daten ersichtlich ist. Sie können daher zur Prophylaxe und Regression von arteriosklerotischen Veränderungen herangezogen werden, indem sie einen kausalen Risikofaktor ausschalten. Hierzu zählen nicht nur die primären Hyperlidämien, sondern auch gewisse sekundäre Hyperlipidämien wie sie z.B. beim Diabetes vorkommen. […] Die mit einer hypolipidämischen Wirkung verbundene unerwünschte Beeinflussung der Leber zeigt sich auch in sehr starkem Maße bei der in J.Med.Chem. 18 (1975) S. 833-836 beschriebenen Vergleichsverbindung 1-(4-Methylbenzyl)-imidazol. […] Die erfindungsgemäßen Verbindungen zeigen dieses unerwünschte Verhalten nicht.
(§1) Die Wirkung der angeführten Verbindungen auf die Serum- Lipoproteine wurde an männlichen Wistar-Ratten untersucht, die 7 Tage per Schlundsonde mit den angeführten in Polyäthylenglykol 400 suspendierten Verbindungen behandelt wurden. Außerdem wurde eine Kontrollgruppe, die nur das Lösungsmittel Polyäthylenglykol 400 erhielt, mitgeführt, sowie bei den meisten Versuchen eine Ratten-Gruppe mit dem Standardhypolipidämikum Clofibrat. Pro Gruppe wurden in der Regel 10 Tiere eingesetzt, denen am Ende der Behandlung das Blut nach leichter Äthernarkose aus dem Orbitalplexus entnommen wurde. Aus dem gewonnenen Ratten-Serum wurden die Serum- Lipoproteine in der präparativen Ultrazentrifuge in folgende Dichteklassen getrennt: VLDL < 1,006; LDL 1,006 bis 1,04; HDL 1,04 bis 1,21

The subject of data set [2] is Serum-Lipoproteine. Nature of the data set: Change of serum and lipoprotein-fraction cholesterol in rats after 7 days of oral treatment (ultracentrifuge fractionation, CHOD-PAP cholesterol). Format: in vivo, männlichen Wistar-Ratten. The settings on record: for change in vivo at 1 mg/kg / change in vivo at 3 mg/kg / change in vivo at 10 mg/kg / change in vivo at 100 mg/kg: Rattus norvegicus, 168 h, oral (gavage), 7 days, male Wistar rats; for change in vivo at 1 mg/kg: 1 mg/kg / Tag; for change in vivo at 3 mg/kg: 3 mg/kg / Tag; for change in vivo at 10 mg/kg: 10 mg/kg / Tag; for change in vivo at 100 mg/kg: 100 mg/kg / Tag.
Text: as §1
Da nämlich im Gegensatz zum Menschen die Serumlipoproteine der Ratte etwa 4/5 HDL-Cholesterin und nur 1/5 LDL-Cholesterin enthalten und nur sehr geringe Mengen von VLDL (beim Menschen umgekehrt etwa 2/3 LDL und VLDL und nur 1/3 bis 1/4 HDL), macht die Beurteilung einer hypolipidämischen Wir- .kung an der Ratte unbedingt eine Fraktionierung des Ratten-serums in Lipoproteinklassen erforderlich. Eine bloße Erniedrigung des Serum-Total-cholesteringehaltes an der Ratte würde nämlich nur die unerwünschte Erniedrigung der bei der Ratte vorwiegenden antiatherogenen HDL-Klasse anzeigen. Eine erwünschte Erniedrigung von LDL bei gleichzeitiger erwünschter Vermehrung von HDL hätte aber keine (wesentliche) Auswirkung auf den Totalcholesteringehalt des Ratten-Serums.
Aus den in der Ultrazentrifuge isolierten LipoproteinFraktionen wurde das darin enthaltene Cholesterin vollenzymatisch nach der CHOD-PAP-Methode mittels der Testkombination von Boehringer-Mannheim bestimmt und die Werte in µg/ml Serum umgerechnet. In der angeführten Tabelle ist die Veränderung des Lipoprotein-Cholesterins in der behandelten Gruppe gegenüber einer unter gleichen Bedingungen mitgeführten Kontrollgruppe angegeben.
Veränderung in % der Lipoproteine im Ratten-Serum nach siebentägiger oraler Applikation der Verbindungen

The mark [3] stands for this setting: read-out: Cholesterolveränderung in %, bezogen auf die Kontrollgruppe in den Serum-Lipoprotein-Fraktionen LDL.
[4] abbreviates: read-out: Cholesterolveränderung in %, bezogen auf die Kontrollgruppe in den Serum-Lipoprotein-Fraktionen VLDL.
Setting [5] is: read-out: Cholesterolveränderung in %, bezogen auf die Kontrollgruppe in den Serum-Lipoprotein-Fraktionen HDL.
Setting [6] is: read-out: Cholesterolveränderung in %, bezogen auf die Kontrollgruppe im Serum.

On to `Cc1cc(Cn2ccnc2)cc(Cl)c1OCc1ccc(C(O)C(C)(C)C)cc1` (stereo not drawn) [Beispiel 5, α-Tert.-butyl-4-[2-Chlon-6-methyl-4-(imidazol-1-ylmekthyl)-phenoxymethyl]-benzylalkohol], for which the “% Veränderung des relativen Lebergewichtes” value in data set [1] (3 mg/kg / Tag, oral (gavage), 7 days, male Wistar rats) is “+13%”. Besides, the change in vivo at 1 mg/kg in data set [2] (setting [3]) was -39%; in data set [2] (setting [4]) it was -13%. The change in vivo at 3 mg/kg in data set [2] (setting [5]) was 18%; in data set [2] (setting [3]), -47%; in data set [2] (setting [4]), -10%. Also, the results for the change in vivo at 10 mg/kg in data set [2] (setting [6]), in data set [2] (setting [3]) and in data set [2] (setting [4]) were -23%, -59% and -46%, respectively.
Take `CCOC(=O)C(C)(C)Oc1ccc(Cl)cc1` [Clofibrat, reference compound]: the “relatives Lebergewicht” value in data set [1] (rat, in vivo) is “starken Erhöhung des relativen Lebergewichts”. The change in vivo at 100 mg/kg in data set [2] (setting [6]) is -29%; in data set [2] (setting [5]), -34%; in data set [2] (setting [3]) it was -18%; in data set [2] (setting [4]) it was -48%. The “Wirkung auf die Lipoproteinfraktionen (VLDL, LDL, HDL)” value in data set [2] (statement in words summarising the table, rat serum, 7 days oral) is listed as “stärkere Verminderung der HDL- als der LDL-Fraktion”.
